In patent US9957271B2, “Substituted bicyclic aza-heterocycles and analogues as sirtuin modulators” (GlaxoSmithKline, LLC, priority 2012, dated 2018):

Target: T1, SIRT1 (Homo sapiens, UniProt Q96EB6)
T1 sequence (Q96EB6 1-747): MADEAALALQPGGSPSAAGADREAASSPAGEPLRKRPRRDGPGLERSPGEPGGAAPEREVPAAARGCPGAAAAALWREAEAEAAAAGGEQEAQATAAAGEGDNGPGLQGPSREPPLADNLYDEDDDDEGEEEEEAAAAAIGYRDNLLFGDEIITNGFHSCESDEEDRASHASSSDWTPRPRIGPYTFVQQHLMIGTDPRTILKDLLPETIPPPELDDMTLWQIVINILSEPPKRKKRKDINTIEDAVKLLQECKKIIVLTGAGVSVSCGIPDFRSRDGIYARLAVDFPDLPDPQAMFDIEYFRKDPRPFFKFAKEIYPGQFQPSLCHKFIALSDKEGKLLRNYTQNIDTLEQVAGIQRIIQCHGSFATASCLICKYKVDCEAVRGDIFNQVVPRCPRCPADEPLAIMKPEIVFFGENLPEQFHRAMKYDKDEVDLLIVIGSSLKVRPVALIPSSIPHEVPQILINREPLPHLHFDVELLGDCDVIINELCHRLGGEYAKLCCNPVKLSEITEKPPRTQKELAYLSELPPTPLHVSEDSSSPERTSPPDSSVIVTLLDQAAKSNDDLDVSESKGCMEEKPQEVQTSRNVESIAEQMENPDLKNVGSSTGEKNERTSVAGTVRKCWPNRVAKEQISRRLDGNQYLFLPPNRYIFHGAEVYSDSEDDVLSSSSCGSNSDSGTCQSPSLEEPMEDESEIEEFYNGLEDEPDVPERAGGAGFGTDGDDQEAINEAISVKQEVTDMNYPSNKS
Test: TAMRA based mass spectrometry assay of SIRT1 activity
Format: biochemical
Details: TAMRA peptide substrate; for TAMRA EC1.5 (μM): concentration of test compound giving 150% activation of SIRT1; for Emax: percent maximum fold activation of SIRT1, read-out: TAMRA % Fold Act
Excerpt: Mass spectrometry based assays were used to identify modulators of SIRT1 activity. The TAMRA based assay utilized a peptide having 20 amino acid residues as follows: Ac-EE-K(biotin)-[…](Ac)NleSTEG-K(5TMR)-EE-NH2 (SEQ ID NO: 1), wherein K(Ac) is an acetylated lysine residue and Nle is a norleucine. The peptide was labeled with the fluorophore 5TMR (excitation 540 nm/emission 580 nm) at the C-terminus. The sequence of the peptide substrate was based on p53 with several modifications. In addition, the methionine residue naturally present in the sequence was replaced with the norleucine because the methionine may be susceptible to oxidation during synthesis and purification. The Trp based assay utilized a peptide having an amino acid residues as follows: Ac-R-H-K-K(Ac)-W-NH2 (SEQ ID NO: 2).
The TAMRA based mass spectrometry assay was conducted as follows: 0.5 μM peptide substrate and 120 μM βNAD^+ was incubated with 10 nM SIRT1 for 25 minutes at 25° C. in a reaction buffer (50 mM Tris-acetate pH 8, 137 mM NaCl, 2.7 mM KCl, 1 mM MgCl2, 5 mM DTT, 0.05% BSA). The SIRT1 protein was obtained by cloning the SirT1 gene into a T7-promoter containing vector, which was then transformed and expressed in BL21(DE3) bacterial cells. Test compound was added at varying concentrations to this reaction mixture and the resulting reactions were monitored. After the 25 minute incubation with SIRT1, 10 μL of 10% formic acid was added to stop the reaction. The resulting reactions were sealed and frozen for later mass spec analysis. Determination of the amount of deacetylated substrate peptide formed (or, alternatively, the amount of O-acetyl-ADP-ribose (OAADPR) generated) by the sirtuin-mediated NAD-dependent deacetylation reaction allowed for the precise measurement of relative SIRT1 activity in the presence of varying concentrations of the test compound versus control reactions lacking the test compound.
A control for inhibition of sirtuin activity was conducted by adding 1 μL of 500 mM nicotinamide as a negative control at the start of the reaction (e.g., permits determination of maximum sirtuin inhibition). A control for activation of sirtuin activity was conducted using 10 nM of sirtuin protein, with 1 μL of DMSO in place of compound, to determine the amount of deacetylation of the substrate at a given time point within the linear range of the assay. This time point was the same as that used for test compounds and, within the linear range, the endpoint represents a change in velocity.
For the above assay, SIRT1 protein was expressed and purified as follows. The SirT1 gene was cloned into a T7-promoter containing vector and transformed into BL21(DE3). The protein was expressed by induction with 1 mM IPTG as an N-terminal His-tag fusion protein at 18° C. overnight and harvested at 30,000×g. Cells were lysed with lysozyme in lysis buffer (50 mM Tris-HCl, 2 mM Tris[2-carboxyethyl]phosphine (TCEP), 10 μM ZnCl2, 200 mM NaCl) and further treated with sonication for […] for complete lysis. The protein was purified over a Ni-NTA column (Amersham) and fractions containing pure protein were pooled, concentrated and run over a sizing column (Sephadex S200 26/60 global). The peak containing soluble protein was collected and run on an Ion-exchange column (MonoQ). Gradient elution (200 mM-500 mM NaCl) yielded pure protein. This protein was concentrated and dialyzed against dialysis buffer (20 mM Tris-HCl, 2 mM TCEP) overnight. The protein was aliquoted and frozen at −80° C. until further use.

SMILES | TAMRA EC1.5 (μM) | Emax [%]
O=C(NCc1cccnc1)c1cnc2ccc(-c3cccc(C(F)(F)F)c3)nn12 [Compound 1] | B (EC1.5 1-25 μM) | < 350
O=C(Nc1nccs1)c1cnc2ccc(-c3cccc(C(F)(F)F)c3)nn12 [Compound 3] | B (EC1.5 1-25 μM) | < 350
O=C(Nc1ccccn1)c1cnc2ccc(-c3cccc(C(F)(F)F)c3)nn12 [Compound 4, N-(pyridin-2-yl)-6-(3-(trifluoromethyl)phenyl)imidazo[1,2-b]pyridazine-3-carboxamide] | B (EC1.5 1-25 μM) | < 350
O=C(Nc1nc(CN2CCOCC2)cs1)c1cnc2ccc(-c3cccc(C(F)(F)F)c3)nn12 [Compound 6] | A (EC1.5<1 μM) | ≥ 350
O=C(Nc1nccs1)c1cnc2ccc(-c3cccc(OC(F)(F)F)c3)nn12 [Compound 7] | B (EC1.5 1-25 μM) | < 350
O=C(Nc1ccccn1)c1cnc2ccc(-c3cccc(N4CCOCC4)c3)nn12 [Compound 10] | B (EC1.5 1-25 μM) | < 350
CS(=O)(=O)c1cccc(-c2ccc3ncc(C(=O)Nc4ccccn4)n3n2)c1 [Compound 12] | C (EC1.5>25 μM) | < 350
O=C(Nc1nccs1)c1cnc2ccc(-c3ccccc3OC(F)(F)F)nn12 [Compound 13] | A (EC1.5<1 μM) | ≥ 350
O=C(Nc1nccs1)c1cnc2ccc(-c3ccccc3C(F)(F)F)nn12 [Compound 15] | B (EC1.5 1-25 μM) | ≥ 350
O=C(Nc1ccccn1)c1cnc2ccc(-c3ccccc3C(F)(F)F)nn12 [Compound 16] | A (EC1.5<1 μM) | ≥ 350
O=C(Nc1ccncn1)c1cnc2ccc(-c3cccc(C(F)(F)F)c3)nn12 [Compound 18] | B (EC1.5 1-25 μM) | < 350
O=C(Nc1cccc(CN2CCOCC2)n1)c1cnc2ccc(-c3ccccc3C(F)(F)F)nn12 [Compound 19, N-(6-(morpholinomethyl)pyridin-2-yl)-6-(2-(trifluoromethyl)phenyl)imidazo[1,2-b]pyridazine-3-carboxamide] | A (EC1.5<1 μM) | ≥ 350
O=C(Nc1cccc(N2CCOCC2)n1)c1cnc2ccc(-c3ccccc3C(F)(F)F)nn12 [Compound 21] | A (EC1.5<1 μM) | ≥ 350
O=C(Nc1nc(CN2CCOCC2)cs1)c1cnc2ccc(-c3cccc(Cl)c3)nn12 [Compound 27] | A (EC1.5<1 μM) | ≥ 350
O=C(Nc1cccc(CN2CCOCC2)n1)c1cnc2ccc(-c3cccc(F)c3)nn12 [Compound 28] | A (EC1.5<1 μM) | < 350
O=C(Nc1cccc(CN2CCOCC2)n1)c1cnc2ccc(-c3cc(F)ccc3F)nn12 [Compound 30] | B (EC1.5 1-25 μM) | < 350
O=C(Nc1nc(CN2CCOCC2)cs1)c1cnc2ccc(-c3cc(F)ccc3F)nn12 [Compound 31] | B (EC1.5 1-25 μM) | < 350
O=C(Nc1nccs1)c1cnc2ccc(-c3ccccc3C(F)F)nn12 [Compound 33, 6-(2-(difluoromethyl)phenyl)-N-(thiazol-2-yl)imidazo[1,2-b]pyridazine-3-carboxamide] | B (EC1.5 1-25 μM) | < 350
O=C(Nc1cccc(N2CCOCC2)n1)c1cnc2ccc(-c3ccccc3C(F)F)nn12 [Compound 36] | A (EC1.5<1 μM) | ≥ 350
O=C(Nc1nc(CN2CCOCC2)cs1)c1cnc2ccc(-c3ccc(F)cc3F)nn12 [Compound 42] | B (EC1.5 1-25 μM) | < 350
O=C(Nc1cccc(CN2CCOCC2)n1)c1cnc2ccc(-c3cc(F)cc(F)c3)nn12 [Compound 45] | B (EC1.5 1-25 μM) | < 350
O=C(Nc1nc(CN2CCOCC2)cs1)c1cnc2ccc(-c3cc(F)cc(F)c3)nn12 [Compound 46] | B (EC1.5 1-25 μM) | < 350
O=C(Nc1nc(CN2CCOCC2)cs1)c1cnc2ccc(-c3cccc(F)c3F)nn12 [Compound 48] | B (EC1.5 1-25 μM) | ≥ 350
O=C(Nc1cccc(N2CCC2)n1)c1cnc2ccc(-c3ccccc3C(F)(F)F)nn12 [Compound 49] | A (EC1.5<1 μM) | ≥ 350
O=C(Nc1cccc(N2CCOCC2)n1)c1cnc2ccc(-c3cncc(C(F)F)c3)nn12 [Compound 60] | A (EC1.5<1 μM) | < 350

Further lines, results first:

TAMRA EC1.5 (μM) | Emax [%] | SMILES
C (EC1.5>25 μM) | < 350 | O=C(Nc1nccs1)c1cnc2ccc(-c3cccc(N4CCOCC4)c3)nn12 [Compound 9]
A (EC1.5<1 μM) | ≥ 350 | O=C(Nc1cccc(N2CCCC2)n1)c1cnc2ccc(-c3ccccc3C(F)(F)F)nn12 [Compound 22]
B (EC1.5 1-25 μM) | ≥ 350 | O=C(Nc1ccnc(N2CCOCC2)c1)c1cnc2ccc(-c3ccccc3C(F)(F)F)nn12 [Compound 24]
A (EC1.5<1 μM) | ≥ 350 | O=C(Nc1cccc(N2CCCC2)n1)c1cnc2ccc(-c3ccccc3C(F)F)nn12 [Compound 37]
A (EC1.5<1 μM) | ≥ 350 | O=C(Nc1ccnc(N2CCOCC2)c1)c1cnc2ccc(-c3ccccc3C(F)F)nn12 [Compound 39]
A (EC1.5<1 μM) | ≥ 350 | O=C(Nc1ccnc(N2CCCC2)c1)c1cnc2ccc(-c3ccccc3C(F)F)nn12 [Compound 40]
A (EC1.5<1 μM) | ≥ 350 | O=C(Nc1ccnc(N2CCC2)c1)c1cnc2ccc(-c3ccccc3C(F)F)nn12 [Compound 52]
C (EC1.5>25 μM) | < 350 | Cc1noc(C)c1-c1ccc2ncc(C(=O)Nc3ccnc(N4CCCC4)c3)n2n1 [Compound 54, 6-(3,5-dimethylisoxazol-4-yl)-N-(2-(pyrrolidin-1-yl)pyridin-4-yl)imidazo[1,2-b]pyridazine-3-carboxamide]
C (EC1.5>25 μM) | < 350 | Cc1noc(C)c1-c1ccc2ncc(C(=O)Nc3ccnc(N4CCC4)c3)n2n1 [Compound 55]
C (EC1.5>25 μM) | < 350 | Cn1cc(-c2ccc3ncc(C(=O)Nc4ccnc(N5CCCC5)c4)n3n2)cn1 [Compound 57]
B (EC1.5 1-25 μM) | < 350 | Cc1ncccc1-c1ccc2ncc(C(=O)Nc3cccc(N4CCOCC4)n3)n2n1 [Compound 58]
B (EC1.5 1-25 μM) | < 350 | O=C(Nc1ccnc(N2CCCC2)c1)c1cnc2ccc(-c3cncc(C(F)F)c3)nn12 [Compound 61]
